pEC50: −log10 of the molar value.
biological target: T1, α4β7 integrin (Homo sapiens, UniProt P13612+P26010); experiment: α4β7 Integrin Cell Capture Assay; assay type: cell-based; settings: capture of α4β7 integrin expressing RPMI8866 cells on recombinant MadCAM-1 extracellular domain-coated plate; DMEM+0.5% FBS+0.5 mM MnCl2; read-out: EC50 α4β7
T1 construct: monitoring the capture of α4β7 integrin expressing cells on a recombinant MadCAM-1 extracellular domain-coated plate; endogenous in cells; host or cells: RPMI8866 cells
T1 sequence (P13612 34-1032): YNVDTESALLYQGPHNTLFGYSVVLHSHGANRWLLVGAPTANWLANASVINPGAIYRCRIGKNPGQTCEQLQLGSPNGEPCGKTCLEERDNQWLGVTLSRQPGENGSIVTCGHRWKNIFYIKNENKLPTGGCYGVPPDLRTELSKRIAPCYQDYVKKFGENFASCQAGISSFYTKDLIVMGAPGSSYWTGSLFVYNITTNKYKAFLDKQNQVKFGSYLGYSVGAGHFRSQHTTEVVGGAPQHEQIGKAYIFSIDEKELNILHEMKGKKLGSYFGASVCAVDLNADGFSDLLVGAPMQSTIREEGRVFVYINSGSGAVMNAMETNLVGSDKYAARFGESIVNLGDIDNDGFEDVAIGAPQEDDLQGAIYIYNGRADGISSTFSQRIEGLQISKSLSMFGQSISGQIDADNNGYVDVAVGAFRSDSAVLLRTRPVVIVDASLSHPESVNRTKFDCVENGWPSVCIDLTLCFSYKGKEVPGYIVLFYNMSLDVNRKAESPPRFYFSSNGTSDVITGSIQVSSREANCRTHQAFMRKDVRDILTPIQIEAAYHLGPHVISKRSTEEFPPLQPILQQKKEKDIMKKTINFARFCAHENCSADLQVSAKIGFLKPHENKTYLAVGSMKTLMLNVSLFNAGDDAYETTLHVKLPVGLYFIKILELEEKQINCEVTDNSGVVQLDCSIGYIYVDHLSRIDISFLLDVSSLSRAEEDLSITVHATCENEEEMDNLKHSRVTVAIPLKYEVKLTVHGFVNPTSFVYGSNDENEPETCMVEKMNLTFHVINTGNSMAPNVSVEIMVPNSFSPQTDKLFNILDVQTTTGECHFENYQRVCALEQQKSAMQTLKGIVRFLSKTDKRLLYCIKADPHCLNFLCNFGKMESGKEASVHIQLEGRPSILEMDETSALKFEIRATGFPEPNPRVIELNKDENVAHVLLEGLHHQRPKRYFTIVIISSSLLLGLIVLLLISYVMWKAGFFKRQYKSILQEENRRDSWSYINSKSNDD
T1 sequence (P26010 20-798): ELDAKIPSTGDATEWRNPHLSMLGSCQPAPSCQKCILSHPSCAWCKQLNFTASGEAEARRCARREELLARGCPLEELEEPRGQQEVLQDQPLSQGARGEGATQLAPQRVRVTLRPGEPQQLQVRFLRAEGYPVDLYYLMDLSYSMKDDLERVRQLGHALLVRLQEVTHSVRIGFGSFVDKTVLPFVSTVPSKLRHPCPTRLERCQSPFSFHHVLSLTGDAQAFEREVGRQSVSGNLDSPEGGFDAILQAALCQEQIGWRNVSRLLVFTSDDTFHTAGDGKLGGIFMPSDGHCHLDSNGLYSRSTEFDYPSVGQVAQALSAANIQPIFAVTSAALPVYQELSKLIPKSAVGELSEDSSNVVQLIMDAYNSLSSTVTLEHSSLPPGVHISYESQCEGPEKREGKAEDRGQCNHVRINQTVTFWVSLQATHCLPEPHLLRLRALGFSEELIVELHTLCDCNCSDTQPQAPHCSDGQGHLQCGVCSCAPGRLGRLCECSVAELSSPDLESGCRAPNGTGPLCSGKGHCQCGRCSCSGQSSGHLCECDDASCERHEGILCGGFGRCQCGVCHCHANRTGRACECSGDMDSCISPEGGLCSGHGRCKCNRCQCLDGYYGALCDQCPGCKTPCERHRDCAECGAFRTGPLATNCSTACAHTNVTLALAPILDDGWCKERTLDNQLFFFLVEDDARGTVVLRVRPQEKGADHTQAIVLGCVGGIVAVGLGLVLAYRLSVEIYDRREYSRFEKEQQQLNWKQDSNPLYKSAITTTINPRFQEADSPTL
Protocol: α4β7 Integrin Cell Capture Assay
The potency of inhibitors in preventing α4β7 integrin interaction with MadCAM-1 was measured by monitoring the capture of α4β7 integrin expressing cells on a recombinant MadCAM-1 extracellular domain-coated plate.
384-Well plates (Corning 3702) were coated with MadCAM-1 extracellular domain by dispensing 20 μL of MAdCAM-1 at 1.0 μg/mL per well and incubating overnight at 4° C. The plates were then washed with PBS and blocked with 3% BSA for 2 hours before being washed again.
RPMI8866 cells were spun down and re-suspended in assay medium (DMEM+0.5% FBS+0.5 mM MnCl2) at a density of 0.5×10^6 cells/mL. The cells were then dispensed (60 μL/well) to a 384-well plate (Greiner 781280) that was previously spotted with 60 nL of test compound per well. The plates were incubated at 37° C. for 1 hour. 50 μL of cells were transferred to the blocked, MadCAM-1-coated plates and incubated for 30 minutes at 37° C. 10 μL of 12% glutaraldehyde containing Hoechst 33342 (0.06 mg/mL) was added to the cells (2% glutaraldehyde and 0.01 mg/mL final concentrations). The plates were incubated for 90 minutes at room temperature. The plates were then washed 3 times with 70 μL of PBS per well and imaged on a Cellomics ArrayScan instrument. The cells that were bound to the plate were counted and plotted against the compound concentration to determine the EC50 of the test compounds.

Structure (SMILES)	pEC50
Cc1cc(N2CCOC[C@@H]2C(F)(F)F)cc(F)c1C(=O)N[C@@H](Cc1ccc(-c2c(C(F)(F)F)cc(C)n(C)c2=O)c2nccnc12)C(=O)O (atropisomer, axis not shown) [Example 178]	10.10
Cc1cc(C(F)(F)F)c(-c2ccc(C[C@H](NC(=O)c3c(F)cc(N4CCOC[C@@H]4C(F)(F)F)cc3F)C(=O)O)c3nccnc23)c(=O)n1C (atropisomer, axis not shown) [Example 179]	10.00
O=C(N[C@@H](Cc1ccc(-c2c(Cl)cc(F)cc2Cl)c2cccnc12)C(=O)O)c1c(F)cc(N2CCOCC2C(F)(F)F)cc1F (single isomer, unassigned) [Example 5]	6.15
O=C(N[C@@H](Cc1ccc(-c2c(Cl)cc(F)cc2Cl)c2cccnc12)C(=O)O)c1c(F)cc(N2CCOCC2C(F)(F)F)cc1F (single isomer, unassigned) [Example 6]	6.86
CC[C@@H](Nc1cc(F)c(C(=O)N[C@@H](Cc2ccc(-c3c(C)n(C)c(=O)n(C)c3=O)c3cccnc23)C(=O)O)c(F)c1)C(F)(F)F (single isomer, unassigned) [Example 8]	9.10
CC[C@@H](Nc1cc(F)c(C(=O)N[C@@H](Cc2ccc(-c3c(C)n(C)c(=O)n(C)c3=O)c3cccnc23)C(=O)O)c(F)c1)C(F)(F)F (single isomer, unassigned) [Example 9]	8.39
Cc1c(-c2ccc(C[C@H](NC(=O)c3c(Cl)cccc3Cl)C(=O)O)c3ncccc23)c(=O)n(C)c2ccc(F)cc12 (single isomer, unassigned) [Example 11]	9.30
Cc1c(-c2ccc(C[C@H](NC(=O)c3c(Cl)cccc3Cl)C(=O)O)c3ncccc23)c(=O)n(C)c2ccc(F)cc12 (single isomer, unassigned) [Example 12]	7.71
Cc1c(-c2ccc(C[C@H](NC(=O)c3c(Cl)cccc3Cl)C(=O)O)c3ncccc23)c(=O)n(C)c2ccccc12 (single isomer, unassigned) [Example 47]	7.54
Cc1c(-c2ccc(C[C@H](NC(=O)c3c(Cl)cccc3Cl)C(=O)O)c3ncccc23)c(=O)n(C)c2ccccc12 (single isomer, unassigned) [Example 48]	8.68
COc1cc(F)cc(C(F)(F)F)c1-c1ccc(C[C@H](NC(=O)c2c(Cl)cccc2Cl)C(=O)O)c2ncccc12 (single isomer, unassigned) [Example 49]	7.34
COc1cc(F)cc(C(F)(F)F)c1-c1ccc(C[C@H](NC(=O)c2c(Cl)cccc2Cl)C(=O)O)c2ncccc12 (single isomer, unassigned) [Example 50]	6.82
COc1cc(F)cc(Cl)c1-c1ccc(C[C@H](NC(=O)c2c(Cl)cccc2Cl)C(=O)O)c2ncccc12 (single isomer, unassigned) [Example 53]	6.83
COc1cc(F)cc(Cl)c1-c1ccc(C[C@H](NC(=O)c2c(Cl)cccc2Cl)C(=O)O)c2ncccc12 (single isomer, unassigned) [Example 54]	7.41
Cc1cc(C(F)(F)F)c(-c2ccc(C[C@H](NC(=O)c3c(Cl)cccc3Cl)C(=O)O)c3ncccc23)c(=O)n1C (single isomer, unassigned) [Example 60]	8.57
Cc1cc(C(F)(F)F)c(-c2ccc(C[C@H](NC(=O)c3c(Cl)cccc3Cl)C(=O)O)c3ncccc23)c(=O)n1C (single isomer, unassigned) [Example 61]	7.82
Cn1c(=O)c(-c2ccc(C[C@H](NC(=O)c3c(Cl)cccc3Cl)C(=O)O)c3ncccc23)c(C(F)(F)F)c2ccccc21 (single isomer, unassigned) [Example 62]	8.49
Cn1c(=O)c(-c2ccc(C[C@H](NC(=O)c3c(Cl)cccc3Cl)C(=O)O)c3ncccc23)c(C(F)(F)F)c2ccccc21 (single isomer, unassigned) [Example 63]	7.47
Cn1c(=O)c(-c2ccc(C[C@H](NC(=O)c3c(Cl)cccc3Cl)C(=O)O)c3ncccc23)c(C(F)(F)F)c2cc(Br)ccc21 (single isomer, unassigned) [Example 64]	8.36
Cn1c(=O)c(-c2ccc(C[C@H](NC(=O)c3c(Cl)cccc3Cl)C(=O)O)c3ncccc23)c(C(F)(F)F)c2cc(Br)ccc21 (single isomer, unassigned) [Example 65]	7.57
COc1cnn(C)c(=O)c1-c1ccc(C[C@H](NC(=O)c2c(Cl)cccc2Cl)C(=O)O)c2ncccc12 (single isomer, unassigned) [Example 73]	8.08
Cc1c(-c2ccc(C[C@H](NC(=O)c3c(Cl)cccc3Cl)C(=O)O)c3ncccc23)c(=O)n(C)c2ccc(Cl)cc12 (single isomer, unassigned) [Example 75]	7.64
Cc1c(-c2ccc(C[C@H](NC(=O)c3c(Cl)cccc3Cl)C(=O)O)c3ncccc23)c(=O)n(C)c2ccc(Cl)cc12 (single isomer, unassigned) [Example 76]	7.25
Cc1c(-c2ccc(C[C@H](NC(=O)c3c(Cl)cccc3Cl)C(=O)O)c3ncccc23)c(=O)n(C)c2cc(Cl)ccc12 (single isomer, unassigned) [Example 77]	7.22
Cc1c(-c2ccc(C[C@H](NC(=O)c3c(F)cccc3F)C(=O)O)c3ncccc23)c(=O)n(C)c(=O)n1C (single isomer, unassigned) [Example 81]	8.18
Cc1c(-c2ccc(C[C@H](NC(=O)c3c(F)cccc3F)C(=O)O)c3ncccc23)c(=O)n(C)c(=O)n1C (single isomer, unassigned) [Example 82]	7.41
Cc1cc(C(F)(F)F)c(-c2ccc(C[C@H](NC(=O)c3c(F)cc(N4CCOC[C@@H]4C(F)(F)F)cc3F)C(=O)O)c3ncccc23)c(=O)n1C (single isomer, unassigned) [Example 85]	8.52
Cc1cc(C(F)(F)F)c(-c2ccc(C[C@H](NC(=O)c3c(F)cc(N4CCOC[C@@H]4C(F)(F)F)cc3F)C(=O)O)c3ncccc23)c(=O)n1C (single isomer, unassigned) [Example 86]	9.52
Cc1c(-c2ccc(C[C@H](NC(=O)c3c(F)cc(N4CCOC[C@@H]4C(F)(F)F)cc3F)C(=O)O)c3ncccc23)c(=O)n(C)c2ccc(F)cc12 (single isomer, unassigned) [Example 87]	8.54
Cc1c(-c2ccc(C[C@H](NC(=O)c3c(F)cc(N4CCOC[C@@H]4C(F)(F)F)cc3F)C(=O)O)c3ncccc23)c(=O)n(C)c2ccc(F)cc12 (single isomer, unassigned) [Example 88]	10.00
